SMILES strings stand for the structures.

The subject of one data set is Hela. The data set is described as follows: MTT antiproliferative assay, HeLa. The class given is cell-based, human. The conditions noted are these: 72 h incubation, mean ± SD of three independent experiments. The protocol:
Table 2 IC50 (μM) ± SD of tested compounds in different cell lines after 72 h incubation. | column: Cell Line, IC50 (µM) ± SD / Hela
(In general: Formazan colour is commonly taken as a measure of viable cells.)

Another data set relates to HCT116. The data set is described as follows: MTT antiproliferative assay, HCT116. The data set is classed as cell-based, human. As to conditions: HCT116, 72 h incubation, mean ± SD of three independent experiments.
In another data set the test system is MCF-7. Briefly: MTT antiproliferative assay, MCF-7. The class given is cell-based, human. The conditions noted are these: MCF-7, 72 h incubation, mean ± SD of three independent experiments.
The subject of a further data set is Jurkat. Briefly: MTT antiproliferative assay, Jurkat. As to conditions: 72 h incubation, mean ± SD of three independent experiments. The data set is classed as cell-based, human.
Data set [1] can be described thus: ABTS radical scavenging activity. The conditions noted are these: sample 1 mM, 30 min, gallic acid equivalents, mean (±SD), triplicate. The text has this: (§1) Table 3 Antioxidant activity.
The subject of the next data set is Bj-5ta. The data set is described as follows: MTT cytotoxicity assay, non-cancer Bj-5ta. The class given is cell-based, human. The conditions noted are these: 72 h incubation, mean ± SD of three independent experiments.
Data set [2] is described as follows: DPPH radical scavenging activity. The conditions noted are these: sample 1 mM, 30 min, gallic acid equivalents, mean (±SD), triplicate. On the technique in general: The DPPH test is a chemical assay of radical scavenging.
The next data set has as its system MDA-MB-231. The data set is described as follows: MTT antiproliferative assay, MDA-MB-231. As to conditions: MDA-MB-231, 72 h incubation, mean ± SD of three independent experiments. The class given is cell-based, human.
The nature of data set [3]: Ferric reducing antioxidant power (FRAP). As to conditions: sample 1 mM, 30 min, gallic acid equivalents, mean (±SD), triplicate.
Excerpt: as §1

The next data set deals with MCF-10A. Briefly: MTT cytotoxicity assay, non-cancer MCF-10A. The data set is classed as cell-based, human. As to conditions: 72 h incubation, mean ± SD of three independent experiments.

The melting point is the temperature of the solid-liquid transition. For orientation: IC50 means the concentration that gives 50% inhibition. The low end stands for greater potency, the high end for weaker potency. Molecule `COn1cc(/C=C/C(=O)c2ccccc2O)c2ccccc21` [13c, (2E)-1-(2-hydroxyphenyl)-3-(1-methoxy-1H-indol-3-yl)prop-2-en-1-one] had a melting point of 139 to 140 °C. In the data set on Hela (Homo sapiens, HeLa, 72 h), this molecule showed an IC50 of 73.9 ± 3.4 µM. Further, the midpoint of inhibition with HCT116 (Homo sapiens, HCT-116, 72 h), the IC50, lay at 54 ± 2.2 µM. The same molecule displayed an IC50 in the data set on MCF-7 (Homo sapiens, MCF7, 72 h) of 53.4 ± 2.5 µM. Besides, 42 ± 1.8 µM corresponded to half-maximal inhibition in the data set on Jurkat (Homo sapiens) (IC50). Besides, the ABTS in [1] was 214.6 (±28.4) µmol GAE/mmol. In the data set on Bj-5ta (Homo sapiens), this molecule came in with an IC50 of more than 100 µM. Further, the DPPH in [2] was 30.3 (±15.4) µmol GAE/mmol. The same molecule registered an IC50 in the data set with MDA-MB-231 (Homo sapiens) of more than 100 µM. Besides, the FRAP in data set [3] is 43.4 (±1.8) µmol GAE/mmol. In the data set on MCF-10A (Homo sapiens, MCF-10A, 72 h), the IC50 was more than 100 µM.

For the molecule `O=C(/C=C/c1c[nH]c2ccccc12)c1ccc(O)cc1` [14a, (2E)-1-(4-hydroxyphenyl)-3-(1H-indol-3-yl)prop-2-en-1-one], the melting point is 218 °C. In the data set with Hela (Homo sapiens, HeLa, 72 h), the IC50 is 39.9 ± 2.6 µM. In addition, half-maximal inhibition in the data set with HCT116 (Homo sapiens, HCT-116, 72 h) (IC50) required 36.8 ± 0.5 µM. For the same molecule, the 50% inhibitory concentration (IC50) in the data set with MCF-7 (Homo sapiens, MCF7, 72 h) worked out at 42.2 ± 0.7 µM. The same molecule came in with an IC50 in the data set on Jurkat (Homo sapiens) of 33.9 ± 2.5 µM. Further, the ABTS in [1] is given as 194.8 (±21.4) µmol GAE/mmol. This molecule also yielded an IC50 in the data set with Bj-5ta (Homo sapiens) of 61 ± 0.6 µM. In addition, the DPPH in data set [2] is 12.3 (±2.3) µmol GAE/mmol. This molecule had an IC50 in the data set with MDA-MB-231 (Homo sapiens) of 66 ± 2.5 µM. Further, the FRAP in data set [3] is 105.5 (±3.4) µmol GAE/mmol. Also, in the data set on MCF-10A (Homo sapiens, MCF-10A, 72 h), 51.5 ± 1.7 µM corresponded to half-maximal inhibition (IC50).

As to `Cn1cc(/C=C/C(=O)c2ccc(O)cc2)c2ccccc21` [14b, (2E)-1-(4-hydroxyphenyl)-3-(1-methyl-1H-indol-3-yl)prop-2-en-1-one], the melting point worked out at 244 °C. The molecule further returned an IC50 in the data set with Hela (Homo sapiens, HeLa, 72 h) of 93 ± 2.6 µM. Also, half-maximal inhibition with HCT116 (Homo sapiens, HCT-116, 72 h) (IC50) was put at 49.3 ± 1.3 µM. The same molecule showed an IC50 with MCF-7 (Homo sapiens, MCF7, 72 h) of 82.3 ± 1.8 µM. Besides, the IC50 with Jurkat (Homo sapiens) was more than 100 µM. Further, the ABTS in [1] is on record as 84.6 (±2.7) µmol GAE/mmol. In the data set on Bj-5ta (Homo sapiens), this molecule showed an IC50 of more than 100 µM. In [2], the DPPH is reported as 7.3 (±3.1) µmol GAE/mmol. The IC50 with MDA-MB-231 (Homo sapiens) was more than 100 µM. Further, the FRAP in [3] is 114.3 (±4.2) µmol GAE/mmol. Half-maximal inhibition in the data set on MCF-10A (Homo sapiens, MCF-10A, 72 h) (IC50) required 54 ± 2.1 µM.

For the molecule `COn1cc(/C=C/C(=O)c2ccc(O)cc2)c2ccccc21` [14c, (2E)-1-(4-hydroxyphenyl)-3-(1-methoxy-1H-indol-3-yl)prop-2-en-1-one], the melting point was in the range of 182 to 184 °C. For the same molecule, the IC50 in the data set on Hela (Homo sapiens, HeLa, 72 h) came to 34.6 ± 0.3 µM. Besides, the IC50 in the data set on HCT116 (Homo sapiens, HCT-116, 72 h) came out at 34.5 ± 0.7 µM. Further, inhibition in the data set with MCF-7 (Homo sapiens, MCF7, 72 h) was half-maximal at 52.7 ± 2.6 µM (IC50). In addition, half-maximal inhibition in the data set on Jurkat (Homo sapiens) (IC50) was put at 7.3 ± 0.1 µM. The ABTS in [1] is 75.9 (±5.3) µmol GAE/mmol. In the data set with Bj-5ta (Homo sapiens), this molecule had an IC50 of 76.4 ± 1.7 µM. The DPPH in data set [2] was 21.1 (±5.8) µmol GAE/mmol. Also, half-maximal inhibition in the data set with MDA-MB-231 (Homo sapiens) (IC50) was put at 82.2 ± 3.1 µM. Besides, the FRAP in data set [3] was 42.0 (±2.0) µmol GAE/mmol. Further, 59 ± 0.2 µM corresponded to half-maximal inhibition in the data set on MCF-10A (Homo sapiens, MCF-10A, 72 h) (IC50).

The molecule `COn1cc(C(=O)/C=C/c2ccc(O)c(O)c2)c2ccccc21` [18c, (2E)-3-(3,4-dihydroxyphenyl)-1-(1-methoxy-1H-indol-3-yl)prop-2-en-1-one] showed a melting point of 206 to 209 °C. For the same molecule, the IC50 in the data set on Hela (Homo sapiens, HeLa, 72 h) is more than 100 µM. The molecule further registered an IC50 with HCT116 of 18.2 ± 2.9 µM. The IC50 with HCT116 (Homo sapiens, HCT-116, 72 h) is 18.5 µM. The same molecule gave an IC50 in the data set on MCF-7 (Homo sapiens, MCF7, 72 h) of more than 100 µM. Also, it took 8 ± 1.4 µM to reach half-maximal inhibition with Jurkat (Homo sapiens) (IC50). The ABTS in data set [1] is reported as 298.1 (±21.0) µmol GAE/mmol. For the same molecule, the “IC50 (µM) ± SD, Bj-5ta” value in the data set on Bj-5ta was “no toxicity”. Also, the IC50 in the data set on Bj-5ta (Homo sapiens) is more than 100 µM. The DPPH in [2] was 551.1 (±14.9) µmol GAE/mmol. This molecule also showed an IC50 in the data set on MDA-MB-231 (Homo sapiens) of more than 100 µM. For the same molecule, the FRAP in data set [3] was 432.0 (±21.4) µmol GAE/mmol. Further, the “IC50 (µM) ± SD, MCF-10A” value in the data set on MCF-10A was “no toxicity”. In the data set with MCF-10A (Homo sapiens, MCF-10A, 72 h), this molecule came in with an IC50 of more than 100 µM.

As to `COc1cc(/C=C/C(=O)c2c[nH]c3ccccc23)ccc1O` [19a, (2E)-3-(4-hydroxy-3-methoxyphenyl)-1-(1H-indol-3-yl)prop-2-en-1-one], the melting point was 200 to 203 °C. In the data set with Hela, this molecule had an IC50 of 41.4 ± 2.5 µM. The molecule further yielded an IC50 in the data set with Hela (Homo sapiens, HeLa, 72 h) of 25.5 ± 1.6 µM. The same molecule yielded a half-inhibitory concentration (IC50) with HCT116 of 35.3 ± 0.6 µM. Moreover, it took 62.7 ± 2.9 µM to reach half-maximal inhibition with HCT116 (Homo sapiens, HCT-116, 72 h) (IC50). This molecule registered an IC50 in the data set on MCF-7 (Homo sapiens, MCF7, 72 h) of 43.1 ± 1.6 µM. The molecule further showed an IC50 in the data set with Jurkat (Homo sapiens) of 34 ± 0.3 µM. In addition, the ABTS in [1] is reported as 564.7 (±74.5) µmol GAE/mmol. Also, the 50% inhibitory concentration (IC50) with Bj-5ta (Homo sapiens) came to 66.6 ± 0.1 µM. Moreover, the DPPH in data set [2] is 223.5 (±11.2) µmol GAE/mmol. Also, the IC50 with MDA-MB-231 (Homo sapiens) stood at 45.3 ± 0.5 µM. Besides, in data set [3], the FRAP was 307.2 (±11.9) µmol GAE/mmol. The molecule further yielded an IC50 in the data set with MCF-10A of 40.2 ± 1.2 µM. Also, in the data set with MCF-10A (Homo sapiens, MCF-10A, 72 h), half-maximal inhibition (IC50) was put at 24.7 ± 2.8 µM.

As for `N.N.[Cl][Pt][Cl]` [Cisplatin, reference compound], the IC50 was 6.5 ± 0.5 µM in the data set on Hela; 15.3 ± 1.6 µM in the data set on HCT116; 24.6 ± 2.1 µM with MCF-7; 6.3 ± 0.4 µM in the data set with Jurkat; 37.9 ± 1.9 µM in the data set on Bj-5ta; 17.4 ± 0.2 µM in the data set with MDA-MB-231. In addition, the IC50 in the data set on MCF-10A was found to be 25.9 ± 2.1 µM.

These data come from article PMC10535268, “Design, Synthesis, and Evaluation of Novel Indole Hybrid Chalcones and Their Antiproliferative and Antioxidant Activity” (Molecules, 2023).
